Assay results published in the NIST ThermoML archive (doi:10.1016/j.jct.2013.03.023).
± gives the expanded uncertainty stated by the source.

Settings: 101.33 kPa, Liquid; for viscosity: Capillary tube (Ostwald / Ubbelohde) method; for mass density: Vibrating tube method

`CC(O)c1ccccc1` (configuration not stated) [1-phenylethanol] showed a viscosity (298.15 K) of 8.703 ± 0.2 mPa·s, a mass density (298.15 K) of 1009 ± 1 kg/m3 and a viscosity (303.15 K) of 6.981 ± 0.16 mPa·s. The mass density (303.15 K) was 1004.86 ± 1 kg/m3, the viscosity (308.15 K) was 5.714 ± 0.13 mPa·s and the mass density (308.15 K) was 1000.73 ± 1 kg/m3. The viscosity (313.15 K) was 4.748 ± 0.11 mPa·s and the mass density (313.15 K) was 996.58 ± 1 kg/m3.
Work on `CCc1ccccc1` [ethylbenzene] yielded a viscosity (298.15 K) of 0.6378 ± 0.014 mPa·s, a mass density (298.15 K) of 862.51 ± 1 kg/m3 and a viscosity (303.15 K) of 0.609 ± 0.013 mPa·s. It also gave a mass density (303.15 K) of 858.1 ± 1 kg/m3, a viscosity (308.15 K) of 0.5682 ± 0.012 mPa·s and a mass density (308.15 K) of 853.68 ± 1 kg/m3. For the same compound, the viscosity (313.15 K) was 0.541 ± 0.012 mPa·s and the mass density (313.15 K) was 849.26 ± 1 kg/m3.
With `O` [water] the viscosity (298.15 K) was 0.891 ± 0.019 mPa·s.
